Laboratory results from patent US6599859B1, “Mulch/herbicide composition” (Dow AgroSciences LLC, priority 2001, dated 2003).

Tested on: weeds
Assay: Weed control by mulch, dithiopyr and mulch/dithiopyr compositions applied to the ground
Format: in vivo
Settings: dithiopyr alone, no mulch, application rate 560 grams per hectare
From the text: In the following examples, dithiopyr is first dissolved in a warm solvent such as dipropylene glycol at 12-18 percent, by weight. This solution was then sprayed onto a clay carrier.
The results provided by the composition of this invention were compared with the results obtained using the herbicide and the mulch individually.

Q: Which “% Weed Control” value does the source give for `CSC(=O)c1c(C(F)F)nc(C(F)(F)F)c(C(=O)SC)c1CC(C)C` [Dithiopyr, 2-difluoromethyl-4-(2-methylpropyl)-6-trifluoromethyl-3,5-pyridinedicarbothioic acid, S,S-dimethyl ester] here?
A: The value was 30%.
